Laboratory results: patent publication US20060062736A1, “Therapeutic foam” (priority 2003, published 2006)

Assay: In vitro absorption of foam/gas in fresh human venous blood
Assay type: in vitro ADME
Conditions: 0.5 ml aliquot into 20 ml stirred blood
Protocol: In vitro experiments were conducted to determine the absorption of foam made with different gases in fresh human venous blood.
A 20 ml polypropylene syringe barrel was prepared by puncturing its side wall with a relatively large hypodermic needle to make a hole approximately 1 mm in diameter. This hole was then covered by securing a piece of clear flexible vinyl sheet over it with clear adhesive tape. A small magnetic stirrer element was introduced into the syringe barrel and the plunger then replaced. 20 ml of human venous blood was then with withdrawn in the usual manner from a human subject using the specially prepared syringe fitted with a hypodermic needle.
The hypodermic needle was removed and the syringe then placed on a magnetic stirrer unit so that the magnetic element in the syringe thoroughly agitated the blood. […]
The needle of the 0.5 ml syringe was then introduced through the vinyl sheet on the side wall of the 20 ml syringe. […] It was determined that a distance of 45 intervals on this scale corresponded to an internal volume of in the manometer tubing of approximately 0.5 ml. […]
In this experiment, the air foam test was only observed for a few minutes after tF. However, further experiments have been conducted by the inventors, the results of which are not formally recorded here, involving foam with a percentage of nitrogen. […]

O=O [Oxygen gas, oxygen]
Absorbed volume at tF 0.5(y − z)/(y − x): 0.46 mL | tF (time at which blood column stopped moving): 140 s
